Where a name gives a salt, the structure may show the parent alone. Read-outs that look alike come from different tables or passages of the source.
How the values were obtained:
[1] = Aqueous solubility of amlodipine salts and pH at saturation; format: physicochemical; settings: for solubility (in words): qualitative statement
Text: Although amlodipine is effective as the free base, in practice it is best administered in the form of a salt of a pharmaceutically acceptable acid.
1. Generally, it is known in the art that a good aqueous solubility is necessary for good bioavailability. […] In addition, salts which provide solutions having a pH close to that of blood (7.4) are preferred because they are readily biocompatible and can easily be buffered to the required pH range without altering their solubility.

[2] = Chemical stability of salts blended in powder vehicle (tablets or capsules), breakdown products by tlc, ranked
Experimental: In order to screen for chemical stability, each of the salts was blended in a powder vehicle and formed into tablets or capsules. In the case of tablets the vehicle comprised microcrystalline cellulose in 50:50 combination with anhydrous dibasic calcium phosphate. In the case of capsules the vehicles comprised mannitol in 4:1 combination with dried maize starch. These were then stored in sealed vials at 50° and 75° C. for up to three weeks. The drug and any breakdown products were extracted with methanol:chloroform (50:50) and separated on silica tlc plates using a variety of solvent systems.
The results were compared and the salts ranked according to the number and amount of breakdown product produced.

[3] = format: physicochemical
Text: Consequently a range of pharmaceutically acceptable salts of amlodipine has been made and evaluated using these criteria: […]

[4] = Hygroscopicity: moisture pick-up on exposure to relative humidity; format: physicochemical; settings: for moisture pick-up: 75% relative humidity, 37° C., 24 hours; for hydration state after exposure: 95% relative humidity, 30° C., 3 days
Text: 3. In order to provide stable formulations it is desirable to have a non-hygroscopic salt. In the solid state where drug content is high, absorbed films of moisture can act as a vector for hydrolysis and chemical breakdown. It is the hygroscopic nature of a drug or its salt which contributes to the free moisture which is normally responsible for instability.
Therefore the besylate salt can be considered to be non-hygroscopic and thus provides stale formulations while minimising the risk of intrinsic chemical breakdown.

[5] = Stickiness: amlodipine sticking to tablet punch (processability); format: physicochemical; settings: for Stickiness: runs of 50 to 300 tablets, calcium sulphate dihydrate/microcrystalline cellulose/salt 47.5:47.5:5, average from slope; for processability / anti-adhesion properties (in words): qualitative statement
Text: 4. The final characteristic of an acceptable salt to be considered is the processability, i.e. the compression properties and also the ability not to stick or adhere to the tablet making machinery. For high dose formulations, good compressibility is very important to make elegant tablets. With lower dose tablets the need for good compressibility can be eliminated to a certain extent by the use of suitable diluting excipients called compression aids. Microcrystalline cellulose is a commonly used compression aid. However whatever the dose the adhesion of the drug to the punches of the tablet machine must be avoided. When drug accumulates on the punch surfaces this causes the tablet surface to become pitted and therefore unacceptable. […] In practice it is possible to reduce sticking by wet-massing, careful selection of excipients and the use of high levels of anti-adherents, e.g. magnesium stearate. […] This procedure was then repeated for runs of 100, 150, 200, 250 and 300 tables. After each run the amount of material sticking to the tablet punch was measured after extraction with methanol. The values are plotted and an average value calculated from the slope of the line produced. This same procedure was then repeated for each of the salts of amlodipine.

[6] = Hydration / composition after isolation of the salt; format: physicochemical; settings: after manufacture
[7] = listed as Toluene sulphonate (tosylate)
[8] = listed as Benzene sulphonate (besylate)
[9] = listed as besylate salt of amlodipine

SMILES: CCOC(=O)C1=C(COCCN)NC(C)=C(C(=O)OC)C1c1ccccc1Cl (stereo not drawn) [Maleate]
- solubility [1]: 4.5 mg/mL
- pH at saturation [1]: 4.8
- solubility (in words) [1]: excellent solubility
- Stability (rank order) [2]: .dwnarw.
- stability in solution [3]: tends to break-down in solution after a few weeks
- moisture pick-up [4]: do not pick up any moisture
- hydration state after exposure [4]: remain anhydrous
- Stickiness relative to maleate [5]: 100%
- Stickiness [5]: 1.98 g Amlodipine cm^-2 tablet^-1

SMILES: CCOC(=O)C1=C(COCCN)NC(C)=C(C(=O)OC)C1c1ccccc1Cl (stereo not drawn) [Acetate]
- solubility [1]: 50 mg/mL
- pH at saturation [1]: 6.6
- Stability (rank order) [2]: .dwnarw.

SMILES: CCOC(=O)C1=C(COCCN)NC(C)=C(C(=O)OC)C1c1ccccc1Cl (stereo not drawn) [Free base, 3-ethyl 5-methyl 2-(2-aminoethoxymethyl)-4-(2-chlorophenyl)-1,4-dihydro-6-methylpyridine-3,5-dicarboxylate]
- Stickiness relative to maleate [5]: 102%
- Stickiness [5]: 2.02 g Amlodipine cm^-2 tablet^-1

SMILES: CCOC(=O)C1=C(COCCN)NC(C)=C(C(=O)OC)C1c1ccccc1Cl (stereo not drawn) [Tosylate]
- pH at saturation [1, 7]: 5.9
- solubility [1, 7]: 0.9 mg/mL
- Stability (rank order) [2]: .dwnarw.
- moisture pick-up [4]: do not pick up any moisture
- hydration state after exposure [4]: formed the dihydrate salt
- Stickiness relative to maleate [5]: 98%
- Stickiness [5]: 1.95 g Amlodipine cm^-2 tablet^-1

SMILES: CCOC(=O)C1=C(COCCN)NC(C)=C(C(=O)OC)C1c1ccccc1Cl (stereo not drawn) [Salicylate]
- solubility [1]: 1.0 mg/mL
- Stability (rank order) ([2]; powder vehicle tablets or capsules, sealed vials, 50° and 75° C., up to three weeks, ranked by number and amount of breakdown product, listed from most stable to unstable): .dwnarw.

SMILES: CCOC(=O)C1=C(COCCN)NC(C)=C(C(=O)OC)C1c1ccccc1Cl (stereo not drawn) [Succinate]
- solubility [1]: 4.4 mg/mL
- pH at saturation [1]: 4.9
- Stability (rank order) [2]: .dwnarw.
- Stickiness relative to maleate [5]: 121%
- Stickiness [5]: 2.39 g Amlodipine cm^-2 tablet^-1

SMILES: CCOC(=O)C1=C(COCCN)NC(C)=C(C(=O)OC)C1c1ccccc1Cl (stereo not drawn) [Hydrochloride]
- solubility [1]: 50 mg/mL
- pH at saturation [1]: 3.5
- Stickiness relative to maleate [5]: 127%
- Stickiness [5]: 2.51 g Amlodipine cm^-2 tablet^-1

SMILES: CCOC(=O)C1=C(COCCN)NC(C)=C(C(=O)OC)C1c1ccccc1Cl (stereo not drawn) [Besylate, amlodipine benzenesulphonate]
- pH at saturation [1, 8]: 6.6
- solubility [1, 8]: 4.6 mg/mL
- solubility (in words) [1, 9]: good solubility characteristics
- Stability (rank order) [2]: most stable
- stability (overall conclusion) [2]: good stability
- hygroscopicity (overall conclusion) [4]: non-hygroscopic
- moisture pick-up [4]: do not pick up any moisture
- hydration state after exposure [4]: remain anhydrous
- hygroscopicity (overall conclusion) [4, 9]: non-hygroscopicity
- processability / anti-adhesion properties (in words) [5]: superior anti-adhesion properties to the maleate
- processability / anti-adhesion properties (in words) [5, 9]: good processability
- Stickiness relative to maleate [5]: 59%
- Stickiness [5]: 1.17 g Amlodipine cm^-2 tablet^-1

SMILES: CCOC(=O)C1=C(COCCN)NC(C)=C(C(=O)OC)C1c1ccccc1Cl (stereo not drawn) [Mesylate]
- pH at saturation ([1]; listed as Methane sulphonate (mesylate)): 3.1
- Stability (rank order) [2]: .dwnarw.
- processability / anti-adhesion properties (in words) [5]: good processability
- Stickiness relative to maleate [5]: 58%
- Stickiness [5]: 1.16 g Amlodipine cm^-2 tablet^-1
- hydration after isolation as the anhydride [6]: equilibrates to the monohydrate

From patent US4879303A, “Pharmaceutically acceptable salts” (priority 1986, dated 1989)
